Columns and labels:
[1] = tested on: HCC-44 (Lung Adenocarcinoma); test: Bliss excess, mean over the matrix (fraction); higher = more synergy
Procedure, shortened: (§1)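 After 24 hours at 37°C and 5% CO2 in 1536-well plates, cells in DMEM/F12 or RPMI plus 10% FBS received two-drug dose matrices for 72 hours. Viability came from CellTiter-Glo 2.0 luminescence and was scaled as inhibition, anchored at 0 by vehicle wells and at 1 by blank wells. Combination Emax is taken as the second-highest inhibition in the matrix, and Bliss excess as the observed combination effect less EA + EB − EA·EB, with EA and EB the single-agent effects.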

[2] = tested on: NCI-H810 (Non-Small Cell Lung Carcinoma); test: as above
Procedure, shortened: as §1

[3] = tested on: OV-90 (Ovarian Carcinoma); test: as above
Procedure, shortened: as §1

[4] = tested on: FLO-1 (Esophageal Adenocarcinoma); test: as above
Procedure, shortened: as §1

[5] = tested on: NKM-1 (Acute Myeloid Leukemia); test: as above
Procedure, shortened: as §1

[6] = tested on: KYM-1 (Rhabdomyosarcoma); test: as above
Procedure, shortened: as §1

[7] = tested on: PC-14 (Lung Adenocarcinoma); test: as above
Procedure, shortened: as §1

[8] = tested on: SW684 (Other Solid Carcinomas); test: as above
Procedure, shortened: as §1

[9] = tested on: SK-MM-2 (Plasma Cell Myeloma); test: as above
Procedure, shortened: as §1

[10] = tested on: NCI-H1755 (Lung Adenocarcinoma); test: as above
Procedure, shortened: as §1

[11] = tested on: PANC-02-03 (Pancreatic Carcinoma); test: as above
Procedure, shortened: as §1

[12] = tested on: COLO-684 (Endometrial Carcinoma); test: as above
Procedure, shortened: as §1

[13] = tested on: Becker (Low Grade Glioma); test: as above
Procedure, shortened: as §1

[14] = tested on: CHL-1 (Melanoma); test: as above
Procedure, shortened: as §1

[15] = tested on: RMG-I (Ovarian Carcinoma); test: as above
Procedure, shortened: as §1

[16] = tested on: LAMA-84 (Chronic Myelogenous Leukemia); test: as above
Procedure, shortened: as §1

[17] = tested on: LOUCY (T-Lymphoblastic Leukemia); test: as above
Procedure, shortened: as §1

[18] = tested on: KYSE-70 (Esophageal Squamous Cell Carcinoma); test: as above
Procedure, shortened: as §1

[19] = tested on: EB-3 (Burkitt's Lymphoma); test: as above
Procedure, shortened: as §1

[20] = tested on: CML-T1 (Chronic Myelogenous Leukemia); test: as above
Procedure, shortened: as §1

[21] = tested on: HCC-44 (Lung Adenocarcinoma); test: combination Emax (second highest fraction inhibited in the dose matrix, 72 h); higher = more inhibition; extreme values may be limits of the assay
Procedure, shortened: as §1

[22] = tested on: NCI-H810 (Non-Small Cell Lung Carcinoma); test: as above
Procedure, shortened: as §1

[23] = tested on: OV-90 (Ovarian Carcinoma); test: as above
Procedure, shortened: as §1

[24] = tested on: FLO-1 (Esophageal Adenocarcinoma); test: as above
Procedure, shortened: as §1

[25] = tested on: NKM-1 (Acute Myeloid Leukemia); test: as above
Procedure, shortened: as §1

[26] = tested on: KYM-1 (Rhabdomyosarcoma); test: as above
Procedure, shortened: as §1

[27] = tested on: PC-14 (Lung Adenocarcinoma); test: as above
Procedure, shortened: as §1

[28] = tested on: SW684 (Other Solid Carcinomas); test: as above
Procedure, shortened: as §1

[29] = tested on: SK-MM-2 (Plasma Cell Myeloma); test: as above
Procedure, shortened: as §1

[30] = tested on: NCI-H1755 (Lung Adenocarcinoma); test: as above
Procedure, shortened: as §1

[31] = tested on: PANC-02-03 (Pancreatic Carcinoma); test: as above
Procedure, shortened: as §1

[32] = tested on: COLO-684 (Endometrial Carcinoma); test: as above
Procedure, shortened: as §1

[33] = tested on: Becker (Low Grade Glioma); test: as above
Procedure, shortened: as §1

[34] = tested on: CHL-1 (Melanoma); test: as above
Procedure, shortened: as §1

[35] = tested on: RMG-I (Ovarian Carcinoma); test: as above
Procedure, shortened: as §1

[36] = tested on: LAMA-84 (Chronic Myelogenous Leukemia); test: as above
Procedure, shortened: as §1

[37] = tested on: LOUCY (T-Lymphoblastic Leukemia); test: as above
Procedure, shortened: as §1

[38] = tested on: KYSE-70 (Esophageal Squamous Cell Carcinoma); test: as above
Procedure, shortened: as §1

[39] = tested on: EB-3 (Burkitt's Lymphoma); test: as above
Procedure, shortened: as §1

[40] = tested on: CML-T1 (Chronic Myelogenous Leukemia); test: as above
Procedure, shortened: as §1
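Throughout, for Bliss excess, mean over the matrix: after 72 h of two-drug dosing.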

SMILES | Bliss excess [1] | Bliss excess [2] | Bliss excess [3] | Bliss excess [4] | Bliss excess [5] | Bliss excess [6] | Bliss excess [7] | Bliss excess [8] | Bliss excess [9] | Bliss excess [10] | Bliss excess [11] | Bliss excess [12] | Bliss excess [13] | Bliss excess [14] | Bliss excess [15] | Bliss excess [16] | Bliss excess [17] | Bliss excess [18] | Bliss excess [19] | Bliss excess [20] | combination Emax [21] | combination Emax [22] | combination Emax [23] | combination Emax [24] | combination Emax [25] | combination Emax [26] | combination Emax [27] | combination Emax [28] | combination Emax [29] | combination Emax [30] | combination Emax [31] | combination Emax [32] | combination Emax [33] | combination Emax [34] | combination Emax [35] | combination Emax [36] | combination Emax [37] | combination Emax [38] | combination Emax [39] | combination Emax [40]
O=C(c1cc(Cc2n[nH]c(=O)c3ccccc23)ccc1F)N1CCN(C(=O)C2CC2)CC1 [Olaparib] + Cc1c2c(nn1C)CSCc1cc(n(C)n1)CSc1cc(c3ccccc3c1)OCCCc1c(C(=O)O)n(C)c3c-2c(Cl)ccc13 [AZD5991] (first compound max 10 µM, 7x7, partner max 1 µM) | -0.0267 | -0.0578 | -0.0554 | -0.0102 | 0.0786 | 0.0435 | -0.0279 | -0.0763 | -0.0093 | -0.0215 | -0.0465 | -0.0104 | -0.0125 | -0.0174 | -0.0627 | -0.0136 | -0.0086 | -0.032 | -0.0579 | -0.0255 | 0.117 | 0.49 | 0.114 | 0.253 | 1 | 0.832 | 0.0956 | 0.0699 | 0.111 | 0.18 | 0.128 | 0.224 | 0.22 | 0.312 | 0.123 | 0.223 | 0.234 | 0.104 | 0.0218 | 0.832
N#Cc1cnc(Nc2cc(NC[C@H]3CNCCO3)c(C(F)(F)F)cn2)cn1 [SRA737] + C=CCn1c(=O)c2cnc(Nc3ccc(N4CCN(C)CC4)cc3)nc2n1-c1cccc(C(C)(C)O)n1 [AZD1775] (first compound max 10 µM, partner max 1 µM) | 0.0685 | 0.0718 | -0.0401 | -0.0189 | 0.0732 | 0.0382 | 0.0602 | -0.0677 | 0.0284 | -0.0377 | -0.0172 | 0.0602 | 0.176 | 0.0512 | -0.0477 | 0.0718 | 0.138 | 0.0613 | 0.0314 | 0.0611 | 0.732 | 0.81 | 0.425 | 0.803 | 0.976 | 0.947 | 0.882 | 0.277 | 0.452 | 0.77 | 0.42 | 0.864 | 0.705 | 0.837 | 0.35 | 0.943 | 1 | 0.561 | 0.798 | 1
N#Cc1cnc(Nc2cc(NC[C@H]3CNCCO3)c(C(F)(F)F)cn2)cn1 [SRA737] + CCc1c2c(nc3ccc(O)cc13)-c1cc3c(c(=O)n1C2)COC(=O)[C@]3(O)CC [SN-38] (first compound max 10 µM, 7x7, partner max 0.3 µM) | 0.124 | 0.0918 | -0.0976 | 0.0593 | -0.0365 | -0.0207 | 0.0164 | -0.0846 | 0.014 | -0.0327 | -0.0673 | 0.0144 | -0.0297 | 0.0724 | -0.0426 | -0.023 | 0.102 | 0.0857 | -0.0157 | -0.0022 | 0.904 | 0.829 | 0.519 | 0.815 | 0.995 | 0.945 | 0.816 | 0.459 | 0.776 | 0.871 | 0.674 | 0.878 | 0.865 | 0.807 | 0.484 | 0.953 | 0.952 | 0.683 | 0.828 | 1
